In test [1] the test system is macrophages. Briefly: triglyceride content in macrophages (Triglyceride Assay Kit). It is filed as cell-based, human. To be noted: 10 µM, 48 h. On the procedure: THP-1 monocytes were plated out into 24-well plates (Nunc) at a density of 2 x 10^5 cells/well. After differentiation and treatment cells were lysed with 100 µL lysis buffer (PBS, 0.25 M NaCl, 1% Triton X-100). Total and free cholesterol were determined using the colorimetric enzymatic Amplex Red Cholesterol Assay Kit (Invitrogen). Triglycerides were quantified by Triglyceride Assay Kit (BioVision). For normalisation protein content was determined with Pierce 660 nm Protein Assay Reagent (Thermo Scientific).

Test [2] deals with T1, LXRβ ligand binding domain (LBD) (Homo sapiens, UniProt P55055).
T1 construct: expressed in transfected cells; host or cells: HEK-293
T1 sequence (P55055 154-460 limits assumed): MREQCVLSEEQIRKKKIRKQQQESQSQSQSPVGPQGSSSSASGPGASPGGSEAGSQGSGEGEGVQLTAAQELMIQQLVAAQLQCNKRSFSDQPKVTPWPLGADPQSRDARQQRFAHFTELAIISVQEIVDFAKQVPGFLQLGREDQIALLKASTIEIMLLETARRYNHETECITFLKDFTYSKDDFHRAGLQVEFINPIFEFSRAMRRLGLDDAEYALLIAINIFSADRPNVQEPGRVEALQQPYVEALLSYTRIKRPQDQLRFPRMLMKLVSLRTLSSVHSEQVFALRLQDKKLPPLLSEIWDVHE
Briefly: dual luciferase reporter gene assay with LXRβ ligand binding domain in HEK-293 cells. It is filed as cell-based. The procedure: Selection and amplification were performed in E-coli cells. Purification of the plasmids was performed with a plasmid purification kit (Qiagen). For transfection HEK-293 cells were plated in 96-well plates (TPP) at a density of 3.5 x 10^4 cells/well for 24 h. To investigate the ligand binding on LXRα ligand binding domain, 0.04 ng of renilla luciferase coding plasmide pGL4.75 (Promega), 0.04 ng of LXRα-LBD/GAL4-DBD plasmide and 80 ng of firefly luciferase coding plasmide pGL4.31 (Promega) were used in a total volume of 200 µL for each well. In LXRβ binding assay 40 ng of LXRβ-LBD/GAL4-DBD plasmide were applied in each transfection mix. Transfection was carried out for 4 h with Lipofectamine 2000 Transfection Reagent (Invitrogen) in Opti-MEM medium (Invitrogen). Ligand treatment was performed at different concentrations for 24 h. For lysis and detection dual-luciferase reporter gene assay system (Promega) and POLARstar Omega (BMG LABTECH) were used.
A general note: Reporter assays use an easily measured gene product as a stand-in for the process of interest.

For test [3], the system named is foam cells. Kind of test: microarray genome-wide gene expression and GSEA in foam cells. To be noted: 10 µM. It is filed as cell-based, human. On the procedure:
Microarray analyses were performed according to instructions of Illumina's TotalPrep RNA Amplification Kit followed by hybridisation on HumanHT-12 v3 or HumanHT-12 v4 Expression BeadChips (illumina). Data analysis was performed with GenomeStudio […].1 (illumina). Differential expression analysis was performed on background-subtracted data with cubic spline normalization and Benjamini-Hochberg FDR correction. […] Gene expression data were submitted in MIAME-compliant form to the NCBI Gene Expression Omnibus database (GSE39079). Bead array data were validated by quantitative real-time PCR. The Gene Distance Matrix was conducted in Euclidean space using the MeV 4.3 software tool [[…]. et al. Biotechniques (2003), 34, 374-378]. Gene Set Enrichment Analysis (GSEA) was performed as described elsewhere [Subramanian A. et al. Proc. Natl. Acad. Sci. […] Enrichment of pathways was tested using the Reactome (v3.0) and the KEGG (v3.0) database from the Molecular Signature Database (MSigDB). Heatmaps were carried out with […]. et al. BMC Bioinformatics (2012), 11, 121]. For presentation of treatment effects in the heatmap, the pathway normalized enrichment score (NES) was adjusted with the appropriate FDR as follows: adjustedNES = (1-FDR) x NES.

Molecules are shown by their SMILES.

For `C(=C\c1ccc(OCC2CO2)cc1)/c1ccccc1` (stereo not shown) [compound 1, 2-[[4-[(E)-styryl]phenoxy]-methyl]oxirane], the triglyceride level entry in test [1] is reported as “stayed unchanged”. Moreover, the “Transcriptional activation of LXRβ” value in test [2] is given as “does not activate the LXRβ subtype”. Besides, in test [3], the “Lipid metabolism processes (gene set enrichment)” value is given as “comparably up-regulated” and the “triacylglyceride biosynthesis (transcriptional regulation)” value is recorded as “not regulated”.

The values are drawn from patent publication EP2759295A1, “Foam cell specific Liver X Receptor (LXR) alpha agonist, SIRT1 inhibitors as well as p300 inhibitors as pharmaceutically active agents” (Max-Planck-Gesellschaft zur Förderung der Wissenschaften …, priority 2013, dated 2014).
